Where two headings read alike, the source gives them in different places.
How the values were obtained:
[1] = tested on: bloodstream trypomastigotes (BT) forms of T. cruzi (Y strain); assay: Trypanocidal analysis in vitro on bloodstream trypomastigotes; assay type: cell-based, Trypanosoma cruzi; settings: for SI (selective index: ratio between LC50/EC50 values): LC50 on mammalian cardiac cells (24 h) / EC50 on BT forms; for EC50: mean ± SD, 24 h of incubation at 37°C, Y strain, read-out: EC50 (drug concentration which reduces the number of the parasites by 50%); for times more active than benznidazole: comparison of EC50 values on bloodstream trypomastigotes
Procedure: Y strain of T. cruzi was used throughout the experiments. Bloodstream forms were harvested by heart puncture from T. cruzi-infected Swiss mice at the peak of parasitemia.
For the in vitro analysis on trypomastigotes, the parasites were incubated at 310 K in the presence of increasing doses (0–200 μM) of each compound diluted in Dulbecco's modified Eagle's medium which was supplemented with 5% fetal bovine serum and 1 mM L-glutamine (DMES). After 24 h, death rates were determined by light microscopy through the direct quantification of live parasites using Neubauer chamber, and EC50 values (drug concentration which reduces 50% of the number of live parasites) were then calculated as reported.

[2] = target: T1, human serum albumin (HSA) (Homo sapiens, UniProt P02768); assay: Quenching of HSA intrinsic fluorescence (Stern-Volmer); assay type: binding; settings: HSA 4 × 10^−6 mol L^−1, 296 K, pH 7.4; standard error 0.2 × 10^4 L mol^−1; corrected for inner filter effect
T1 construct: purchased Sigma-Aldrich
T1 sequence (P02768 25-609): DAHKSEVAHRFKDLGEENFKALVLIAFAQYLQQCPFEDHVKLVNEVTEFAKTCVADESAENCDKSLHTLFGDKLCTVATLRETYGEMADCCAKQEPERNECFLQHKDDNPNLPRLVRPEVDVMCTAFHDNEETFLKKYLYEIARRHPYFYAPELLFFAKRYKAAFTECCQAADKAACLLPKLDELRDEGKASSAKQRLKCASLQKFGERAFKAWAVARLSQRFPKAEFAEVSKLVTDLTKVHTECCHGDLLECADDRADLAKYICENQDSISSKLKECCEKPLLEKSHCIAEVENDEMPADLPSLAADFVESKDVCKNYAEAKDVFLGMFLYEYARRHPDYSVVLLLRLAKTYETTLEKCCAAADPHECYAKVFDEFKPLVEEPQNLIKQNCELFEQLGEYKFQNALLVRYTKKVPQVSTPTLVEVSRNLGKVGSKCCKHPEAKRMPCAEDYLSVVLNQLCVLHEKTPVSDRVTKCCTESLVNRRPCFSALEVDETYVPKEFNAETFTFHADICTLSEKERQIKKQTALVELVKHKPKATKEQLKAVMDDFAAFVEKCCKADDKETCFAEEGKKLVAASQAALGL
Procedure: (§1) Steady state fluorescence measurements were performed on a Varian-Agilent Cary Eclipse or a PTI QM1 fluorescence system. UV-Vis absorption spectra were obtained with an Agilent diode array spectrophotometer model 8452A. Fluorescence lifetimes were measured using IBH-Horiba-Jobin Yvon TCSPC system. NanoLEDs with 1.0 ns nominal pulse duration and 1 MHz repetition rate were used as light sources for exciting the intrinsic HSA or BSA fluorescence (283 nm) and NOR fluorescence (330 nm).
(§2) Quenching measurements of albumin fluorescence were taken in 3 mL of BSA or HSA (4 × 10^−6 mol L^−1) in phosphate buffer 10 mM at pH 7.4. The albumin solutions were titrated by successive additions of the complex stock solutions. The fluorescence emission spectra of BSA and HSA were measured using an excitation wavelength of 290 nm. Experiments were performed at ambient temperature (296 K) and pH 7.4.
(§3) In this section, the quenching of BSA and HSA fluorescence by Cu(II) ions, Cu(II)-bipy, Cu(II)-phen, and complexes 1 and 2 was monitored. All the UV absorption and emission spectra were registered. The fluorescence decay curves with excitation at 283 nm and emission at 340 nm were obtained in the absence of the quenchers, at an intermediary and at the final quencher concentration. The raw data are available in Supplementary Material available online at http://dx.doi.org/10.1155/2016/5027404. The fluorescence intensity was attenuated by absorption of the incident and emitted light. […] The fluorescence spectra were corrected using the following expression:(2) Fcorr=Fobs10^Aex+Aeml/2, where F corr and F obs are the corrected and observed fluorescence intensity, A ex and A em are the absorbance at the excitation and emission wavelengths, respectively, and ℓ is the optical path in cm.
(§4) Quenching of a fluorophore by a drug can occur by a static or dynamic process. Static or dynamic quenching at a single site can be described by the Stern-Volmer equation [36]:(3) F0/F=1+KSVQ, where F 0 and F are the fluorescence intensities of albumins in the absence and presence of complexes, respectively. [Q] is the quencher concentration, and K SV is the Stern-Volmer quenching constant, which is related to the bimolecular collisional process in dynamic quenching but is the association constant in static quenching. Stern-Volmer constants were obtained for the linear region of the plots (Table 3).

[3] = target: T2, bovine serum albumin (BSA) (Bos taurus, UniProt P02769); assay: Quenching of BSA intrinsic fluorescence (Stern-Volmer); assay type: binding; settings: BSA 4 × 10^−6 mol L^−1, 296 K, pH 7.4; standard error 0.2 × 10^4 L mol^−1; corrected for inner filter effect
T2 construct: purchased Sigma-Aldrich
T2 sequence (P02769 25-607): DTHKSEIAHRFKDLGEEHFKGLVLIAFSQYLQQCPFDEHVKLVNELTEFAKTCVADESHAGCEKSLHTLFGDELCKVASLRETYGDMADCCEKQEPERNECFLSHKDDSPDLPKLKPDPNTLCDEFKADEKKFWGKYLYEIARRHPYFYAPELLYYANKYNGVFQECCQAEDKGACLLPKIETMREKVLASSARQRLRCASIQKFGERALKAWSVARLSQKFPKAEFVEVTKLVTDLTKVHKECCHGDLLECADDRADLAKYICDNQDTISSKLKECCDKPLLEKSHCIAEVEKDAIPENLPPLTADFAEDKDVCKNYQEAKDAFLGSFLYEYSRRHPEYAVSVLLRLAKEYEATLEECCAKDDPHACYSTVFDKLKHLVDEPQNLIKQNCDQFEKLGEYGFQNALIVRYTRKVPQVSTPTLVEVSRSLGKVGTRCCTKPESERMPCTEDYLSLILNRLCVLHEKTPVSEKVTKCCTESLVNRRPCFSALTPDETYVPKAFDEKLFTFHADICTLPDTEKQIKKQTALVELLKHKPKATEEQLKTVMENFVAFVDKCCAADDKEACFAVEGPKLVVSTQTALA
Procedure: as §1, §2, §3, §4

[4] = tested on: bloodstream trypomastigotes (BT) forms of T. cruzi (Y strain); parameters: method as in Martins et al., 2012 [14]; settings: ref Martins et al., 2012 [14], cited from earlier work; for SI (selective index: ratio between LC50/EC50 values): LC50 on mammalian cardiac cells / EC50 on BT forms; for EC50: mean ± SD, 24 h of incubation at 37°C, Y strain, read-out: EC50 (drug concentration which reduces the number of the parasites by 50%)

O=C(Cn1ccnc1[N+](=O)[O-])NCc1ccccc1 [Benznidazole]
SI (selective index: ratio between LC50/EC50 values) [1]: 77
EC50 ([1]; Trypanosoma cruzi): 13 ± 2 µM

[Cu+2] [Cu(II)]
K SV (Stern-Volmer constant) [2]: 29000 L/mol
K SV (Stern-Volmer constant) [3]: 35000 L/mol

[Cl][Cu][Cl] [CuCl2]
SI (selective index: ratio between LC50/EC50 values) [4]: 6
EC50 [4]: 83 ± 3 µM

CCn1cc(C(=O)O)c(=O)c2cc(F)c(N3CCNCC3)cc21 [Norfloxacin, 1-ethyl-6-fluoro-1,4-dihydro-4-oxo-7-(1-piperazinyl)-quinoline-3-carboxylic acid]
SI (selective index: ratio between LC50/EC50 values) [1]: >1.25
EC50 ([1]; Trypanosoma cruzi): 126 ± 30 µM

[Cl][Cu][Cl].c1ccc(-c2ccccn2)nc1 [[CuCl2(bipy)]]
K SV (Stern-Volmer constant) [2]: 50000 L/mol
K SV (Stern-Volmer constant) [3]: 31000 L/mol
SI (selective index: ratio between LC50/EC50 values) [4]: 4.5
EC50 [4]: 14 ± 7 µM

[CuCl2(NOR)]
SI (selective index: ratio between LC50/EC50 values) [1]: 0.8
EC50 [1]: 78 ± 12 µM

[CuCl2(phen)(NOR)]·3H2O [complex 2]
SI (selective index: ratio between LC50/EC50 values) [1]: 2.68
times more active than benznidazole [1]: 2-3 times
EC50 [1]: 4.4 ± 1.4 µM
K SV (Stern-Volmer constant) [2]: 49000 L/mol
K SV (Stern-Volmer constant) [3]: 37000 L/mol

[CuCl2(phen)]
times more active than benznidazole [1]: 2-3 times
K SV (Stern-Volmer constant) [2]: 51000 L/mol
K SV (Stern-Volmer constant) [3]: 35000 L/mol
SI (selective index: ratio between LC50/EC50 values) [4]: <4
EC50 [4]: 7 ± 5 µM

[CuCl(bipy)(NOR)]Cl·2H2O [complex 1]
SI (selective index: ratio between LC50/EC50 values) [1]: 4
EC50 [1]: 16 ± 4 µM
K SV (Stern-Volmer constant) [2]: 58000 L/mol
K SV (Stern-Volmer constant) [3]: 30000 L/mol

From PMC4746275, “Norfloxacin and N-Donor Mixed-Ligand Copper(II) Complexes: Synthesis, Albumin Interaction, and Anti-Trypanosoma cruzi Activity” (Bioinorganic Chemistry and Applications, 2016)
